The source of these data is patent US20060286167A1, “Compositions and methods for the treatment of neurodegenerative diseases” (priority 2005, published 2006).

Where a name gives a salt, the structure may show the parent alone. Read-outs that look alike come from different tables or passages of the source. Where no end group is shown, it is not given here.

The test system of this assay is SMN protein in SMA patient fibroblasts (GM03813). The experiment in a line: SMN cytoblot assay (SMN protein levels in SMA patient fibroblasts). The format is cell-based, human. The text has this: One method for monitoring SMN protein levels in cells is through use of a cytoblot assay, in which cells are fixed and probed with an antibody against a target protein of interest. We have used a cytoblot assay to determine the concentration of SMN protein in SMA patient fibroblasts, and have identified small molecules that increase SMN protein concentration.
Using the cytoblot assay, we can clearly distinguish SMN protein levels in patient (GM03813) versus carrier fibroblast cells (GM03814), as shown in the FIGS. 1A and 1B.
• 1. Plate 50 μl per well of 300,000 cells/ml (15,000 cells per well) into Nunc white 384-well opaque-bottomed plates. • 2. Incubate plates at 37° C., 5% CO2 overnight. Day 2 • 1. Aspirate media from wells using Tecan plate washer. • 2. Fix cells by adding 20 μl/well of cold methanol (kept in −20° C. freezer). • 3. Incubate plates in 4° C. refrigerator for 10 minutes. • 4. Aspirate methanol using Tecan plate washer. • 5. Add 50 μl/well of primary Ab solution, (BD anti-SMN Ab diluted to 125 ng/ml in 10% fetal goat serum PBST), using multi-drop. • 6. Seal plates and incubate overnight at room temperature. Day 3 • 1. After 16-20 hrs incubation, wash plates with PBST 2× using Tecan plate washer. • 2. Add 50 μl of secondary Ab solution, (Santa Cruz goat anti-Mouse-HRP diluted to 67 ng/ml in 10% fetal goat serum PBST). • 3. Seal plates and incubate 2 hrs at room temperature. • 4. Wash plates with PBST 2× using Tecan plate washer. • 5. Add 50 μl/well 10% fetal goat serum PBST. • 6. Incubate in 4° C. refrigerator for 10 minutes. • 7. Aspirate plates using plate washer and add ECL luminescence solution, 20 μl/well. • 8. Measure luminescence on plate reader. Automated Scoring
We scored each compound based on the maximum signal-to-noise ratio (SNR) found among its dose curves. These scores are based on edge-corrected SMN data, using only plates that passed quality control. The untreated level on each plate was found by taking the median of the untreated wells, and for each treated well we calculated a log(T/U) ratio. Each curve was generated in triplicate on each plate, so each point on a compound's dose curve was obtained by determining the median for the replicate points. Each ratio thus has an error estimate from the scatter between the triplicate data points (1.5 times the median absolute deviation from the median). For each dose curve, we calculated the SNR for each data point log(T/U)/error, and chose the maximum point as our indicator of SMN induction activity. Since this is a signal-to-noise score, scores much greater than one indicate significant activity, assuming normal statistics. We decided to use a cutoff signal-to-noise ratio of 6. This selection represents a considerable enrichment towards visually-selected compounds. We identified 100 out of 2000 compounds producing scores >6. This included 13 of the 28 visual selections.

The mark [1] stands for this setting: maximum signal-to-noise ratio log(T/U)/error among a compound's dose curves, SMN cytoblot, cutoff 6, column Scoring says Automated or Visual selection.

For `NC[C@@H]1O[C@H](O[C@H]2[C@@H](O)[C@H](O[C@@H]3[C@@H](O)[C@H](N)C[C@H](N)[C@H]3O[C@H]3O[C@H](CN)[C@@H](O)[C@H](O)[C@H]3N)O[C@@H]2CO)[C@H](N)[C@@H](O)[C@@H]1O` [Framycetin], under setting [1], the SNR is given as 13.3.

As for `CCN(CC)C(C)CN1c2ccccc2Sc2ccccc21` (centres unmarked) [Ethopropazine Hydrochloride], the SNR under setting [1] was determined as 9.61.

For `CN(C)C(=O)Oc1ccc[n+](C)c1` [Pyridostigmine Bromide], under setting [1], the SNR amounted to 6.19.

Consider `CC(=O)OC/C=C(\C)CCC=C(C)C` [Geranyl Acetate], for which the SNR under setting [1] was 6.71.

With `CC(Cc1cccc(C(F)(F)F)c1)NCCOC(=O)c1ccccc1` (centres unmarked) [Benfluorex Hydrochloride], the SNR under setting [1] is 7.11.

Consider “[2-(hexahydro-1 (2H)-azocinyl)ethyl]guanidine [Guanethidine Monosulfate]”, for which the SNR under setting [1] came out at 11.3.

`CCCCCC/C=C\CCCCCCCC(=O)OC` [Methyl Palmitoleate]: under setting [1], the SNR stood at 9.63.

As for `C=C(C)C1CCC(C)CC1OC(C)=O` (centres unmarked) [Isopulegol acetate], the SNR under setting [1] is recorded as 11.4.

Turning to `CCn1nc(C(=O)O)c(=O)c2cc3c(cc21)OCO3` [Cinoxacin], the SNR under setting [1] amounted to 6.

In the case of `NCC1(CC(=O)O)CCCCC1` [Gabapentin], the SNR under setting [1] stood at 6.84.

On to `CN(C)c1nc(N(C)C)nc(N(C)C)n1` [Altretamine], for which the SNR under setting [1] is recorded as 10.2.

As to `C=CCOc1ccccc1OCC(O)CNC(C)C` (centres unmarked) [Oxprenolol Hydrochloride], the SNR under setting [1] was determined as 6.52.

In the case of `CC(O)CN1CCN(CC(=O)[O-])CCN(CC(=O)[O-])CCN(CC(=O)[O-])CC1.[Gd+3]` (centres unmarked) [Gadoteridol], under setting [1], the SNR was 6.54.

Regarding `CCCC(CCC)C(=O)O[C@H]1C[C@H]2CC[C@@H](C1)[N+]2(C)C` [Anisotropine Methylbromide], the SNR under setting [1] stood at 6.43.

Regarding `C#CCN(C)Cc1ccccc1` [Pargyline], the SNR under setting [1] is 6.52.

Regarding `CC(C)(S)C(N)C(=O)O` (racemic) [dl-Penicillamine], the SNR under setting [1] is on record as 9.63.

As to `CCCC(CCC)C(=O)O` [Divalproex Sodium], the SNR under setting [1] amounted to 6.59.

`C[C@H](CCC(=O)O)[C@H]1CC[C@H]2[C@@H]3[C@@H](O)C[C@@H]4C[C@H](O)CC[C@]4(C)[C@H]3CC[C@]12C` [Ursodiol]: the SNR under setting [1] came to 9.2.

Consider Teicoplanin, for which, under setting [1], the SNR was found to be 9.72.

In the case of `S=[Se]=S` [Selenium Sulfide], under setting [1], the SNR was determined as 7.08.

For `CC1CCC(=CC(=O)O)CC1` (centres unmarked) [2-(4-methyl010cyclohexylidene) acetic acid], the SNR under setting [1] is 6.16.

Regarding `CCCCc1cccs1` [2-n-Butylthiophene], the SNR under setting [1] is given as 8.96.

Take `CC[C@]12CCCN3CCc4c(n(c5ccccc45)[C@@](O)(C(=O)OC)C1)[C@@H]32` [Vincamine]: the SNR under setting [1] is recorded as 6.94.

As for `C=CCSSCC=C` [Allyl Disulfide], the SNR under setting [1] is recorded as 9.08.

Turning to `CS(=O)(=O)OCCCCOS(C)(=O)=O` [Busulfan], the SNR under setting [1] is on record as 17.4.

As to `O=C1O[C@H]([C@@H](O)CO)C(O)=C1O` [Ascorbic Acid], the SNR under setting [1] worked out at 6.29.

Regarding Dibekacin Sulfate Salt, the SNR under setting [1] was determined as 6.79.

Consider `CC1CCC(C(C)C)C(O)C1` (centres unmarked) [Menthol], for which the SNR under setting [1] was 7.87.

On to `CCN(CC)CCNC(=O)c1cc(S(C)(=O)=O)ccc1OC` [Tiapride], for which the SNR under setting [1] is 10.5.

As to `CN1CCCN=C1/C=C/c1cccs1` [Pyrantel Pamoate], the SNR under setting [1] amounted to 6.22.

For `CC(=O)OCC(=O)[C@@]12OC(C)(C)O[C@@H]1C[C@H]1[C@@H]3C[C@H](F)C4=CC(=O)C=C[C@]4(C)[C@@]3(F)[C@@H](O)C[C@@]12C` [Fluocinonide], under setting [1], the SNR was 7.01.

Take “Calcitonin (CGNLSTCMLGTYTQDFNKFHTFPQTAIGVGAP; ends and bridges not checked; cysteine pairing not given here; UniProt P01258 85-116, looked up)”: under setting [1], the SNR is 7.46.

With `CC(=O)Oc1cc(C(C)C)c(OCCN(C)C)cc1C` [Moxisylyte Hydrochloride], under setting [1], the SNR stood at 14.3.

With Ferric Ammonium Citrate, the SNR is recorded as 19.4.

For `CC1(C)S[C@@H]2[C@H](NC(=O)[C@H](NC(=O)N3CCNC3=O)c3ccccc3)C(=O)N2[C@H]1C(=O)O` [Azlocillin Sodium], the SNR under setting [1] stood at 6.7.

As for `O=c1[nH]c(=O)n(C2CCCO2)cc1F` (centres unmarked) [Tegafur], the SNR under setting [1] is recorded as 6.74.

On to `CN1CCN(C2=Nc3ccccc3Oc3ccc(Cl)cc32)CC1` [Loxapine Hydrochloride], for which, under setting [1], the SNR was 10.1.

Turning to `C/C=C/c1ccc(OC)cc1` [Trans-Anethole], the SNR under setting [1] was determined as 8.35.
